What was measured:
[1] = tested on: low Km cAMP phosphodiesterase (PDE) from rat adipocyte particulate fraction; experiment: Generation of PDE messenger from liver membranes; extracts assayed for modulation of cAMP phosphodiesterase; assay type: biochemical
Protocol: These were generated from bovine liver particulate fractions by a modification of previously described methods. Particulate fraction was prepared from 100 g of bovine liver, and suspended in […] ammonium bicarbonate, pH 7.4. (Buffer A) at a final concentration of 2-4 mg protein/ml. This solution was incubated with 10 mM for 10 min at 37° C., acidified to pH 4.0 with formic acid and sedimented at 45,000 g for 20 min. An equal volume of chloroform/methanol (2:1) was added to the supernatant, and the upper phase was aspirated and methanol was evaporated.
In the tests the results of which are tabulated above, liver membranes were treated as indicated for 10 min at 37° C., centrifuged and supernatants were extracted and purified up to and including the Dowex 50WX-4 step as described earlier herein under "Experimental Procedures". Partially purified extracts were assayed for ability to modulate cAMP phosphodiesterase. Basal activity was 56.2 pmoles/mg protein^-1 -min^-1.

[2] = tested on: pyruvate dehydrogenase; experiment: Production of pyruvate dehydrogenase modulating activity in crude extracts of plasma membrane derived supernatants; assay type: biochemical
[3] = tested on: BC3 Hl cells; experiment: Incorporation of radiolabel into water soluble products (SAX HPLC Peaks I and II), insulin treated cells; assay type: cell-based, murine; conditions: 10 nM insulin
Protocol: BC3 Hl cells were cultured at 37° C. in Dubelco's Minimal Essential Medium in the presence of 20% NU serum (Collaborative Research) on collagen coated 10 mm miniwells. Cells (1×10^6 /well) were preincubated with 10 μCi A) [2,6^3 H]myoinositol or B) [1,6^3 H]glucosamine (New England Nuclear) for 20 hours in the presence of 20% Nu Serum. Insulin was added to cells in monolayer in serum free media at a final concentration of 10 nM. Reactions were terminated by removal of media and addition of 1 ml chloroform/methanol/IN HCl (200:100:1), followed by addition of 0.5 ml 10 mM formic acid. Organic and aqueous phases were separated by centrifugation at 500×g for 5 min.
The water soluble labeled products were purified by a modification of a previously described protocol for purification of cAMP phosphodiesterase (PDE) modulators. The aqueous phases were chromatographed on DEAE-Cellulose, eluted with 0.25 TEA-formate, pH 3.75. This fraction was eluted through a C-18 reversed phase sepak in the same buffer. Following lyophilization, the solution was eluted through Dowex 50WX-4 in 50 mM TEA-formate. pH 3.0. […] One ml fractions were counted. The two peaks of insulin stimulated radioactivity coeluted with similarly purified, myocyte derived PDE modulating activities. […]

[4] = tested on: glycolipid precursor in BC3 Hl cells; experiment: Radiolabel in glycolipid precursor (TLC), insulin treated cells; assay type: cell-based, murine
Protocol: (A) [^3 H]inositol and (B) [^3 H]glucosamine labeled cells were treated with or without 10 nM insulin. Following extraction and phase separation, the organic phase were dried under N2, resuspended in chloroform/methanol/H2 O (9:7:2); and spotted on oxalate impregnated Silica gel G plates. These were twice developed in chloroform/acetone/methanol/glacial acetic acid/H2 O (10:4:2:2:1). One cm regions were scraped and radioactivity determined by scintillation counting. Phosphoinositides were identified by iodine staining of standards.
Cells prelabeled with [^3 H]inositol were treated with 10 nM insulin for the designated intervals. Cells were extracted and phase separated as detailed in FIG. 7. Aqueous phases were chromatographed up to and including the SAX HPLC step (upper panel). Results reflect counts from a combination of Peaks I and II. The ratio of counts in these peaks were unchanged over the time course. The precursor residing in the organic phases was identified by the peak on TLC with an Rf =0.22, corresponding to the species depleted by PI-PLC (FIG. 10).

[5] = tested on: diacylglycerol in BC3 Hl myocytes; experiment: Diacylglycerol production, [^3 H]myristic acid labeled myocytes; assay type: cell-based, murine; conditions: insulin
Protocol: (§1) Myocytes were incubated for 20 hrs. in serum free DMEM with [9,10^3 H] myristic acid (New England Nuclear), complexed 1:1 to bovine serum albumin. Insulin was added to cells in fresh media for the designated intervals, and reactions were stopped by removal of media and addition of 1 ml chloroform/methanol/IN HCl (200:100:1). 0.6 ml H2 O was added and upper aqueous phases were discarded following centrifugation at 500×g for 5 minutes. The lower, organic phases were dried under N2 and resuspended in 1 ml diethyl ether followed by addition of 1 […]. The upper ether phase was aspirated and the lower phase reextracted with 1 ml diethyl ether. The combined ether phases, containing diacylglycerol, were dried under N2, resuspended in chloroform and spotted on silica gel G plates which were preactivated at 60° C. for 1 hr. Plates were twice developed in petroleum ether/diethyl ether/glacia acetic acid (70:30:2). […] Lipids were scraped and radioactivity determined in a liquid scintillation counter.
(§2) The phosphodiesteratic cleavage of a phospolipid by insulin should also be reflected by increased production of diacylglycerol, which could serve as substrate for a diglyceride kinase, producing phosphatidic acid. Myocytes were preincubated with [^3 H]myristic acid and both diacylglycerol and phosphatidic acid labeling were evaluated by thin layer chromatography (FIG. 6).

[6] = tested on: phosphatidic acid in BC3 Hl myocytes; experiment: Phosphatidic acid production, [^3 H]myristic acid labeled myocytes; assay type: cell-based, murine; conditions: insulin, by 5 minutes
Protocol: as §1, §2

[7] = tested on: polyphosphoinositides; conditions: cited from earlier work

With “Insulin: Monocomponent bovine insulin from Wellcome Laboratores” the “stimulation of PDE modulating activity / increase in production of messengers from membranes” value ([1]; after partial purification) was 4 fold, the “PDE Activity” value ([1]; extracts of liver membranes treated 10 min at 37° C., 1.0 nM insulin, 1.0 μg/ml PI-PLC, basal 56.2) was 138.0 pmol mg protein^-1 min^-1 and the “production of pyruvate dehydrogenase modulating activity” value [2] was “enhanced”. For the same substance, the “incorporation of [^3 H]inositol into two peaks (I and II)” value [3] was “increased the incorporation of [^3 H]inositol into two peaks”, the “percent of maximal effect on production of [^3 H]inositol containing products” value ([3]; 30 sec, Peaks I and II combined) was “Seventy” and the “time course of [^3 H]inositol incorporation into the precursor” value ([4]; 10 nM insulin) was “biphasic”. The “decrease in [^3 H]inositol counts in precursor” value ([4]; 10 nM insulin, 30 sec) was 20%, the “increase in [^3 H]inositol radioactivity in precursor over control levels” value ([4]; 10 nM insulin, after 30 sec) was 60% and the “time of hydrolysis of the putative glycolipid precursor and appearance of the products” value ([4]; insulin dependent) was “less than 1 min”. For the same substance, the “increase in incorporation of [^3 H]glucosamine in precursor peak” value ([4]; insulin, 10 min) was “approximately 40%”, the “increase in incorporation of [^3 H]inositol in precursor peak” value ([4]; insulin, 10 min) was “approximately 40%” and the “labeling of other lipids” value ([4]; insulin, 10 min) was “no significant change”. The radioactivity in precursor ([4]; intact cells) was “rapidly diminished”, the “maximal increase in labeled diacylglycerol over basal” value ([5]; by 5-10 minutes) was 50% and the labeled diacylglycerol level ([5]; by 2 minutes) was “near basal levels”. For the same substance, the “increase in levels of [^3 H]myristate phosphatidic acid” value [6] was 2 fold and the hydrolysis of polyphosphoinositides [7] was “does not stimulate hydrolysis of polyphosphoinositides”.
